One series concerns HIV-1 RT containing TAMS. To be noted: cited from earlier work.
The next series deals with HepG2 cells. The conditions noted are these: HepG2 cells incubated with 10 μM; cited from earlier work.
Series [1] concerns HIV-1AZT7 (M41L/D67N/K70R/T215F/K219Q). The series is described as follows: Drug susceptibility assay against drug-resistant HIV, fold resistance. In kind it is cell-based. The conditions noted are these: EC50 for mutant HIV-1 divided by EC50 for WT HIV-1. As to the method: At 48 h post-infection, a cell lysis buffer and luminescent substrate (Gal-Screen; Tropix/Applied Biosystems) was added to each well, and relative light unit values were determined using a luminometer (ThermoLabSystems, Waltham, Mass.).
Drug susceptibility assays were performed using the single- and multiple-replication-cycle assays also described above.

Another series deals with adenosine deaminase. It is filed as in vitro ADME. To be noted: 7 minutes with 0.002 units of enzyme; 50 μM, pH 7.4, 25° C. The protocol: To determine the propensity for deamination of the APN nucleosides by adenosine deaminase, compounds were incubated with the commercially available purified enzyme, and the reaction was followed spectrophotometrically. Reaction conditions were 50 mM potassium phosphate, pH 7.4, with 50 μM APN nucleoside in 0.5 mL at 25° C. Reaction time was 7 minutes with 0.002 units of enzyme and 120 minutes with 0.2 units of enzyme. (The unit definition of adenosine deaminase is one unit will deaminate 1.0 μmol of adenosine to inosine per minute at pH 7.5 at 25° C.) Deoxyadenosine was the positive control which was 59% deaminated under the given conditions in 7 minutes with 0.002 units of enzyme. Deoxyguanosine was the negative control. Optical density was measured at 265 nm or 285 nm. The difference in optical density between the beginning and the end of the experiment was divided by the extinction coefficient then multiplied by the volume of the reaction to determine the number of mols of substrate transformed into product. Mols of product were divided by mols of substrate equivalent to a 100% complete reaction then multiplied by 100 to obtain percent deamination. The limit of detection was 0.001 optical density units.

Some results are limits rather than exact numbers.

Take `Cc1cn([C@H]2C[C@H](N=[N+]=[N-])[C@@H](COP(=O)(O)O)O2)c(=O)[nH]c1=O` [AZT-MP]: the “lower sensitivity of excision to inhibition by the next-correct dNTP than other NRTI analogs that lack a 3′-azido group” value in the series on HIV-1 RT containing TAMS was above 50 fold.

Consider `O=c1[nH]c(=O)n([C@@H]2O[C@H](CO)[C@@H](O)[C@@H]2F)cc1I` [fialuridine, 1,2′-deoxy-2′-fluoro-1-D-arabinofuranosly-5-iodo-uracil], for which the “mitochondrial morphology in electron micrographs” value in the series with HepG2 cells is reported as “enlarged mitochondria with morphological changes consistent with mitochondrial dysfunction”. `Cc1cn([C@H]2C[C@H](N=[N+]=[N-])[C@@H](CO)O2)c(=O)[nH]c1=O` [AZT, 3′-azido-3′-deoxythymidine] came in with a fold resistance in series [1] above 500 fold. `Nc1ncnc2c1ncn2[C@H]1C[C@H](O)[C@@H](CO)O1` [Deoxyadenosine] gave a percent deamination in the series with adenosine deaminase of 59%.

These data come from patent publication US20100279969A1, “AZIDO PURINE NUCLEOSIDES FOR TREATMENT OF VIRAL INFECTIONS” (priority 2007, published 2010).
